Assay results taken from patent publication US11376307B2, “Compositions and methods of treating cancer with glycomimetic peptides” (SUSAVION BIOSCIENCES, INC., priority 2018, dated 2022).
Positions of bridges follow the written chain, without caps; N, C: chain ends. Chains are numbered I, II in the order given.

Key:
[1] = system: ID8 ovarian cancer cell line; test: Murine model of ovarian cancer, sv6D and anti-PD-1; assay type: in vivo, C57BL/6 mice
Experimental: FIGS. 9A-9B. Combination study of sv6D and anti-PD-1. (FIG. 9A) The design of the experiment and extension of survival of C57BL/6 female mice implanted with ovarian cancer cell line ID8 and treatments with anti-PD-1 and sv6D. Anti-PD-1 (rat anti-mouse, clone 29F.1A12) was administered intraperitoneally every other day, 200 μg protein per dose, between day 41 and 49 (white bars). sv6D was administered subcutaneously every other day at 0.1 nmol/g, starting on day 36, 51 or 87 (grey bars). […] (FIG. 9B) Kaplan-Meier survival curves of mice treated with anti-PD-1 and/or sv6D. […] For group 3, the Mantel-Cox log-rank test p=0.003 indicates the significance between treatment with the combination and antibody alone. Anti-PD-1, square; sv6D, dark triangle; anti-PD-1 followed by sv6D (Group 3 in FIG. 9A), light triangle; PBS, circle.
We tested whether sv6D would extend effectiveness of anti-PD-1. Five doses of anti-PD-1 (200 μg in PBS) were injected intraperitoneally on alternate days between days 41 and 49. sv6D was injected subcutaneously immediately after the treatment with anti-PD-1 and continued on alternate days to the end of the study (FIG. 9A, Group 3).

[2] = system: ID8 ovarian cancer cell line; test: Murine model of ovarian cancer, sv6D and paclitaxel
Experimental: Combination study of sv6D and paclitaxel. (FIG. 8A) Female C57BL/6 mice were implanted with ID8 ovarian cancer cell line. […] Body weights of mice are shown as measured on day 58, after two weeks of alternate-day subcutaneous treatment with sv6D (0.1 nmol/g) or 3 intraperitoneal doses (days 45, 47 and 49) of 18 μg/g paclitaxel in cremophor. […] (FIG. 8B) Alternate-day injections of sv6D were initiated on day 50 with peptide alone or on day 100 to mice that were previously treated with paclitaxel between day 45 and 49. […] (FIG. 8C) Kaplan-Meier survival curves for mice treated with paclitaxel, sv6D or a combination of the two in which alternate-day subcutaneous injections of sv6D was started 50 days after paclitaxel treatment.
Cells of an ovarian epithelial cancer line, ID8 [110], were implanted into the peritoneal cavity of female C57BL/6 mice at a dose of 6×10^6 cells. All animals were weighed at least weekly throughout these studies. Accumulation of ascites was monitored by increase in body weight, and animals were euthanized when end-stage behavior was expressed. […] Kaplan-Meier survival curves were analyzed by the Mantel-Cox log-rank test.
A murine ovarian cancer cell line (ID8) was implanted into the peritoneal cavity of C57BL/6 female mice on day 0. […] Progression of the cancer was monitored by body weight of animals as an indication of ascites accumulation.

[3] = system: human monocyte-derived DCs co-cultured with CD3+ T cells; test: Allogenic mixed leukocyte reaction, IFN-γ release; assay type: cell-based
Experimental: FIGS. 5A-5B. Mixed leukocyte reaction. An allogenic mixture of 5×10^3 human monocyte-derived immature dendritic cells and 1×10^5 negatively selected CD3^+ T cells were incubated with various concentrations of sv6D. (FIG. 5A) Effect of concentration of sv6D in the medium on release of IFN-γ after 5 days of culture. […] (FIG. 5B) The time course of the appearance of IFN-γ in the medium of cultures incubated with 10 nM sv6D in (FIG. 5A) as compared with control incubations with PBS.
Binding of a peptide to CLEC10A expressed by DCs is expected to stimulate maturation and potential activation of T cells. This hypothesis was tested by an experiment in which human monocyte-derived DCs were co-cultured with T cells. Expression of CLEC10A (CD301) by the DCs was established by flow cytometry. sv6D was added to the medium at various concentrations, and IFN-γ production by T cells was assayed. […] Significant release of IFN-γ occurred after 3 days of incubation (FIG. 5B), a time required for DC maturation.

[4] = target: T1, human ASGPR-1 (Homo sapiens, UniProt P07306); test: Inhibition of binding of multivalent GalNAc-PAA; details: about 200 pmoles biotinylated GalNAc-PAA, increasing peptide
T1 construct: The extracellular domains of receptors, which were fused with the Fc domain of immunoglobulin IgG; purchased R&D Systems
T1 sequence (P07306 62-291 limits assumed): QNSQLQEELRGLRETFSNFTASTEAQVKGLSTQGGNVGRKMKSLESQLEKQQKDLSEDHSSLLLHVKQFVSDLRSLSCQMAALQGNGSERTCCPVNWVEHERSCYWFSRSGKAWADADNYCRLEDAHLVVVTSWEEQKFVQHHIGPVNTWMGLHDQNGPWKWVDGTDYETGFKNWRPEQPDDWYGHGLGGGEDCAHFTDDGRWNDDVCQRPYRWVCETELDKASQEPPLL
Experimental: (§1) FIGS. 3A-3D. sv6D as a mimetic of GalNAc. (FIG. 3A) Inhibition by sv6D of binding of multivalent GalNAc-PAA (GlycoTech Corp., Frederick, Md.) to recombinant rat CLEC10A and human ASGPR-1. The reaction mixture included approximately 200 pmoles of biotinylated GalNc-PAA and increasing concentrations of peptide. The figure includes average values from 3 independent experiments. (FIG. 3B) Biotinylated sv6D or GalNAc-PAA were incubated with rabbit antiserum raised against the 6D sequence (NQHTPR) (SEQ ID NO:1) conjugated to keyhole limpet hemocyanin (KLH). Binding was detected with streptavidin-peroxidase conjugate. Similar data were obtained in 2 experiments. (FIG. 3C) Inhibition by EGTA of binding of sv6D (pattern) or svL4 (solid) to CLEC10A and ASGPR-1, respectively. EGTA (1 mM) was added to the final concentrations indicated to assays. Retention of bound CLEC10A was determined by incubation with biotinylated anti-CLEC10A (goat IgG, R&D Systems) and detection with streptavidin-peroxidase conjugate (light grey circle). Similar data were obtained in 3 experiments. (FIG. 3D) Binding of svL4 and sv6D to human recombinant CLEC10A and ASGPR-1 as a function of concentration of peptide in the assay. The figure is representative of 4 separate assays.
(§2) To further determine whether sv6D interacts with the actual sugar binding site, the ability of sv6D to compete with GalNAc-PAA for binding was assayed.

[5] = target: T2, recombinant rat CLEC10A (Rattus norvegicus, UniProt P49301); test: Inhibition of binding of multivalent GalNAc-PAA
T2 construct: The extracellular domains of receptors, which were fused with the Fc domain of immunoglobulin IgG; purchased R&D Systems
T2 sequence (P49301 59-306 limits assumed): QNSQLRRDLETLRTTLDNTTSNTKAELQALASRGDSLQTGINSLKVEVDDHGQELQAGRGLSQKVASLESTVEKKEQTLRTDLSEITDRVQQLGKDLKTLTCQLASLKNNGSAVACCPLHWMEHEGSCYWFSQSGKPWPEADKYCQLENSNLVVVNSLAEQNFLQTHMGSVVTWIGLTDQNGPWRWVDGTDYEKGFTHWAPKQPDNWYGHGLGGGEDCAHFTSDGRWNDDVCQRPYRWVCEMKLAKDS
Experimental: as §1, §2

[6] = system: monocytes in the peritoneal cavity; test: Response of peritoneal monocytes in RAG−/− mice; assay type: in vivo; details: mice lacking B and T cells
Experimental: To determine whether the target(s) for svL4 is located on lymphocytes, with subsequent cross-talk signaling to achieve activation of monocytes, an experiment was performed in which svL4 was injected into RAG^−/− mice, which lack activity of rag, the recombination activation gene. The ability to perform recombination to generate antigen-specific antibodies by V(D)J recombination is required for B and T cell precursors to produce functional antigen receptors on their surface, and without a functional rag gene these cells undergo apoptosis.

| Substance | Ascites formation ([1]; Group 5: sv6D from day 87 after anti-PD-1) | Survival ([1]; Group 6: hiatus of one week after a week of sv6D) | Survival ([1]; combination of anti-PD-1 with sv6D (Group 4)) | Survival ([1]; single agent: anti-PD-1 200 μg i.p. x5 (Group 1), sv6D 0.1 nmol/g s.c. alternate days (Group 7)) | Accumulation of ascites ([1]; sv6D alone vs. anti-PD-1) | Median survival ([2]; paclitaxel days 45-49 followed by sv6D from day 100) | Overall survival time ([2]; paclitaxel followed by sv6D) | Median survival ([2]; single agent, sv6D 0.1 nmol/g, control median end-stage day 122) | Weight gain at day 120 ([2]; sv6D alone initiated at day 45) | Further increase in body weight over 3 weeks ([2]; sv6D alternate days from day 100, 50 days after paclitaxel) | Body weight (ascites accumulation) after two weeks of treatment ([2]; treatment from day 45, sv6D 0.1 nmol/g s.c. alternate days, paclitaxel 18 μg/g i.p. x3) | Incubation time after which significant release of IFN-γ occurred ([3]; 10 nM sv6D) | Concentration giving maximal IFN-γ production / optimal cellular response ([3]; 5 days of culture) | Inhibition of binding of GalNAc-PAA to ASGPR-1 [4] | Inhibition of binding of GalNAc-PAA to CLEC10A ([5]; about 200 pmoles biotinylated GalNAc-PAA, increasing peptide) | Avidity relative to multivalent GalNAc-PAA ([5]; from competition experiment) | Response of peritoneal monocytes [6] |
| --- | --- | --- | --- | --- | --- | --- | --- | --- | --- | --- | --- | --- | --- | --- | --- | --- | --- |
| I: H-NQHTPRGGGSKK-NH2 / II: H-NQHTPRGGGSK / III: H-NQHTPRGGGS / IV: H-NQHTPRGGGS (amide I:11-IV:C, I:12-II:C, II:11-III:C) [sv6D] | essentially complete suppression of ascites formation | survived only slightly longer than animals treated with PBS | maximal survival | maximal survival | inhibited accumulation of ascites to a greater extent than anti-PD-1 | 169 days | doubled | approximately 141 days | no significant weight gain for half the animals | completely suppressed further increases in weight | had not significantly increased | 3 days | 10 nM | inhibited | inhibited | over an order of magnitude greater | – |
| I: H-VQATQSNQHTPRGGGSKK-NH2 / II: H-VQATQSNQHTPRGGGSK / III: H-VQATQSNQHTPRGGGS / IV: H-VQATQSNQHTPRGGGS (amide I:17-IV:C, I:18-II:C, II:17-III:C) [svL4] | – | – | – | – | – | – | – | – | – | – | – | – | – | – | – | – | essentially the same as that in C57BL/6 mice |
